# Values of other authors, collected in paper PMC10928227, “Assessing biologic/toxicologic effects of extractables from plastic contact materials for advanced therapy manufacturing using cell painting assay and cytotoxicity screening” (Scientific Reports, 2024).
# Read-outs that look alike come from different tables or passages of the source.
# What was measured:
# [1] = cited from earlier work; for Risk based on in vitro genotoxicity data from database (from QSAR-toolbox): not checked for in vivo relevance, ref QSAR Toolbox 4.5 database
# [2] = cited from earlier work
# [3] = Salmonella typhimurium, Strain TA 97, in Vitro, Database: Bacterial mutagenicity ISSSTY, ref CCRIS database,Toxnet databases (Romualdo Benigni)
# [4] = Salmonella typhimurium, Strain TA 98, in Vitro, Database: Bacterial mutagenicity ISSSTY, ref CCRIS database,Toxnet databases (Romualdo Benigni)
# [5] = Salmonella typhimurium, Strain TA 100, in Vitro, Database: Bacterial mutagenicity ISSSTY, ref CCRIS database,Toxnet databases (Romualdo Benigni)
# [6] = Salmonella typhimurium, Strain TA 102, in Vitro, Database: Bacterial mutagenicity ISSSTY, ref CCRIS database,Toxnet databases (Romualdo Benigni)
# [7] = in Vitro, Database Genotoxicity & Carcinogenicity ECVAM, ref EURL ECVAM genotoxicity and carcinogencity database, Madia F et al, 2020
# [8] = in Vitro, Salmonella typhimurium, Strain TA 97, Database Genotoxicity OASIS, ref P&G
# [9] = in Vitro, Salmonella typhimurium, Strain TA 98, Database Genotoxicity OASIS, ref P&G
# [10] = in Vitro, Salmonella typhimurium, Strain TA 100, Database Genotoxicity OASIS, ref P&G
# [11] = in Vitro, Salmonella typhimurium, Strain TA 102, OECD Guideline 471, Database Genotoxicity OASIS, ref CCRIS database,Toxnet databases
# [12] = in Vitro, Salmonella typhimurium, Strain TA 1535, Database Genotoxicity OASIS, ref P&G
# [13] = in Vitro, Salmonella typhimurium, Strain TA 1537, Database Genotoxicity OASIS, ref P&G
# [14] = in Vitro, Salmonella typhimurium, Strain TA 1538, Database Genotoxicity OASIS, ref P&G
# [15] = in Vivo, Database Genotoxicity & Carcinogenicity ECVAM, ref EURL ECVAM genotoxicity and carcinogencity database, Madia F et al, 2020
compound,measurement,setting,value
Nc1ccccc1 [62-53-3],"Genetic Toxicity, Genotoxicity","[1]; Mammalian cell line, test guideline not reported, scale Gene mutation I, ref Database: Food TOX Hazard EFSA",Positive
same,"Gene mutation, Bacterial Reverse Mutation Assay (e.g. Ames Test)",[1]; [3],Negative
same,"Gene mutation, Bacterial Reverse Mutation Assay (e.g. Ames Test)","[1]; Salmonella typhimurium, Strain TA 98(NR), in Vitro, Database: Bacterial mutagenicity ISSSTY, ref CCRIS database,Toxnet databases (Romualdo Benigni)",Negative
same,"Gene mutation, Bacterial Reverse Mutation Assay (e.g. Ames Test)",[1]; [4],Negative
same,"Gene mutation, Bacterial Reverse Mutation Assay (e.g. Ames Test)","[1]; Salmonella typhimurium, Strain TA 98, in Vitro, Database: Genotoxicity OASIS, ref Mutation Research, 168 (1986) 69-240, U.S. Environmental Protection Agency",Negative
same,"Gene mutation, Bacterial Reverse Mutation Assay (e.g. Ames Test)","[1]; Salmonella typhimurium, Strain TA 98, in Vitro, Database: Genotoxicity OASIS, ref P&G",Negative
same,"Gene mutation, Bacterial Reverse Mutation Assay (e.g. Ames Test)",[1]; [5],Negative
same,"Gene mutation, Bacterial Reverse Mutation Assay (e.g. Ames Test)","[1]; Salmonella typhimurium, Strain TA 100, in Vitro, Database: Genotoxicity OASIS, ref Mutation Research, 168 (1986) 69-240, U.S. Environmental Protection Agency",Negative
same,"Gene mutation, Bacterial Reverse Mutation Assay (e.g. Ames Test)","[1]; Salmonella typhimurium, Strain TA 100, in Vitro, Database: Genotoxicity OASIS, ref P&G",Negative
same,"Gene mutation, Bacterial Reverse Mutation Assay (e.g. Ames Test)",[1]; [6],Negative
same,"Gene mutation, Bacterial Reverse Mutation Assay (e.g. Ames Test)","[1]; Salmonella typhimurium, Strain TA 1535, in Vitro, Database: Bacterial mutagenicity ISSSTY, ref CCRIS database,Toxnet databases (Romualdo Benigni)",Negative
same,"Gene mutation, Bacterial Reverse Mutation Assay (e.g. Ames Test)","[1]; Salmonella typhimurium, Strain TA 1535, in Vitro, Database: Genotoxicity OASIS, ref Mutation Research, 168 (1986) 69-240, U.S. Environmental Protection Agency",Negative
same,"Gene mutation, Bacterial Reverse Mutation Assay (e.g. Ames Test)","[1]; Salmonella typhimurium, Strain TA 1535, in Vitro, Database: Genotoxicity OASIS, ref P&G",Negative
same,"Gene mutation, Bacterial Reverse Mutation Assay (e.g. Ames Test)","[1]; Salmonella typhimurium, Strain TA 1537, in Vitro, Database: Bacterial mutagenicity ISSSTY, ref CCRIS database,Toxnet databases (Romualdo Benigni)",Negative
same,"Gene mutation, Bacterial Reverse Mutation Assay (e.g. Ames Test)","[1]; Salmonella typhimurium, Strain TA 1537, in Vitro, Database: Genotoxicity OASIS, ref Mutation Research, 168 (1986) 69-240, U.S. Environmental Protection Agency",Negative
same,"Gene mutation, Bacterial Reverse Mutation Assay (e.g. Ames Test)","[1]; Salmonella typhimurium, Strain TA 1537, in Vitro, Database: Genotoxicity OASIS, ref P&G",Negative
same,"Gene mutation, Bacterial Reverse Mutation Assay (e.g. Ames Test)","[1]; Salmonella typhimurium, Strain TA 1538, in Vitro, Database: Bacterial mutagenicity ISSSTY, ref CCRIS database,Toxnet databases (Romualdo Benigni)",Negative
same,"Chromosome aberration, in Vitro Mammalian Chromosome Aberration Test","[1]; in Vitro, Chinese hamster, Chinese Hamster Lung (CHL), Duration 6÷18 h, Database Genotoxicity OASIS, ref Sofuni, T., Ed. (1998). Data Book of Chromosomal Aberration Test In Vitro, Revised Edition",Positive
same,"Chromosome aberration, Micronucleus Assay",[1]; [7],Positive
same,"Chromosome aberration, in Vitro Mammalian Chromosome Aberration Test",[1]; [7],Positive
same,"Gene mutation, Mammalian Cell Gene Mutation (MLA HPRT)",[1]; [7],Positive
same,"Gene mutation, Bacterial Reverse Mutation Assay (e.g. Ames Test)","[1]; in Vitro, Salmonella typhimurium and Escherichia Coli, Database Genotoxicity & Carcinogenicity ECVAM, ref EURL ECVAM genotoxicity and carcinogencity database, Madia F et al, 2020",Negative
same,"Gene mutation, Bacterial Reverse Mutation Assay (e.g. Ames Test)",[1]; [8],Negative
same,"Gene mutation, Bacterial Reverse Mutation Assay (e.g. Ames Test)","[1]; in Vitro, Salmonella typhimurium, Strain TA 98, Database Genotoxicity OASIS, ref Mutation Research, 168 (1986) 69-240, U.S. Environmental Protection Agency",Negative
same,"Gene mutation, Bacterial Reverse Mutation Assay (e.g. Ames Test)",[1]; [9],Negative
same,"Gene mutation, Bacterial Reverse Mutation Assay (e.g. Ames Test)",[1]; [10],Negative
same,"Gene mutation, Bacterial Reverse Mutation Assay (e.g. Ames Test)",[1]; [11],Negative
same,"Gene mutation, Bacterial Reverse Mutation Assay (e.g. Ames Test)",[1]; [12],Negative
same,"Gene mutation, Bacterial Reverse Mutation Assay (e.g. Ames Test)","[1]; in Vitro, Salmonella typhimurium, Strain TA 1537, Database Genotoxicity OASIS, ref Mutation Research, 168 (1986) 69-240, U.S. Environmental Protection Agency",Negative
same,"Gene mutation, Bacterial Reverse Mutation Assay (e.g. Ames Test)",[1]; [13],Negative
same,"Gene mutation, Bacterial Reverse Mutation Assay (e.g. Ames Test)",[1]; [14],Negative
same,"Genetic Toxicity, unscheduled DNA synthesis (UDS in Vitro)","[1]; in Vitro, scale Mutagenicity I (ECVAM), ref EURL ECVAM genotoxicity and carcinogencity database, Madia F et al, 2020",Negative
same,"Chromosome aberration, in Vivo Mammalian Chromosome Aberration Test","[2]; Database Genotoxicity & Carcinogenicity ECVAM, ref EURL ECVAM genotoxicity and carcinogencity database, Madia F et al, 2020",Positive
same,"Chromosome aberration, Micronucleus Assay",[2]; [15],Positive
same,"DNA damage and repair, COMET or Alkaline Elution",[2]; [15],Positive
same,"Chromosome aberration, Micronucleus Assay","[2]; in Vivo, Database Genotoxicity OASIS, ref RESS, NB. et. al., MUTAT. RES. 521(1-2):201-208, 2002",Positive
same,"DNA damage and repair, Single Cell Gel Electrophoresis (comet) Assay","[2]; in Vivo, Database Genotoxicity OASIS, ref Yu F. Sasaki et. al., 2000, Critical Reviews in Toxicology,30(6),Pp.629-799",Positive
CCCC(C)=O [107-87-9],"Gene mutation, Bacterial Reverse Mutation Assay (e.g. Ames Test)","[1]; in Vitro, Salmonella typhimurium, No Strain Information, Database Genotoxicity OASIS, ref J. Chem. Inf. Model., 2009, 49 (9), pp 2077–2081, Hansen K. et al.",Negative
CCCCCCCC(=O)O [124-07-2],"Chromosome aberration, in Vitro Mammalian Chromosome Aberration Test","[1]; in Vitro, Chinese hamster, Chinese Hamster Lung Cells, Guidelines For Screening Mutagenicity Testing of Chemicals (Chemical Substances Control Law of Japan), Database Toxicity Japan MHLW, ref Japan Ministry of Health Labour and Welfare, http://dra4.nihs.go.jp/mhlw_data/jsp/SearchPageENG.jsp",Negative
S=c1[nH]c2ccccc2s1 [149-30-4],"Chromosome aberration, in Vitro Mammalian Chromosome Aberration Test","[1]; in Vitro, No Strain Information, Database Genotoxicity OASIS, ref Mutation Research 584 (2005) 1-256, Kirkland et al.",Positive
same,"Gene mutation, Mammalian Cell Gene Mutation Assay","[1]; in Vitro, T-lymphoma Cell Lines, Database Genotoxicity OASIS, ref Mutation Research 584 (2005) 1-256, Kirkland et al.",Positive
CN1CCCC1=O [872-50-4],"Gene mutation, Bacterial Reverse Mutation Assay (e.g. Ames Test)",[1]; [3],Negative
same,"Gene mutation, Bacterial Reverse Mutation Assay (e.g. Ames Test)",[1]; [4],Negative
same,"Gene mutation, Bacterial Reverse Mutation Assay (e.g. Ames Test)",[1]; [5],Negative
same,"Gene mutation, Bacterial Reverse Mutation Assay (e.g. Ames Test)",[1]; [6],Negative
same,"Gene mutation, Bacterial Reverse Mutation Assay (e.g. Ames Test)","[1]; Salmonella typhimurium, Strain TA 104, in Vitro, Database: Bacterial mutagenicity ISSSTY, ref CCRIS database,Toxnet databases (Romualdo Benigni)",Negative
same,"Gene mutation, Bacterial Reverse Mutation Assay (e.g. Ames Test)","[1]; Salmonella typhimurium, Strain TA 2638, in Vitro, Database: Bacterial mutagenicity ISSSTY, ref CCRIS database,Toxnet databases (Romualdo Benigni)",Negative
same,"Gene mutation, Bacterial Reverse Mutation Assay (e.g. Ames Test)","[1]; in Vitro, Salmonella typhimurium, No Strain Information, Database Genotoxicity OASIS, ref Journal of Medicinal Chemistry 48 (1), pp. 312-32, 25, Kazius J, McGuire R., Bursi R",Negative
same,"Gene mutation, Bacterial Reverse Mutation Assay (e.g. Ames Test)",[1]; [8],Negative
same,"Gene mutation, Bacterial Reverse Mutation Assay (e.g. Ames Test)",[1]; [9],Negative
same,"Gene mutation, Bacterial Reverse Mutation Assay (e.g. Ames Test)",[1]; [10],Negative
same,"Gene mutation, Bacterial Reverse Mutation Assay (e.g. Ames Test)",[1]; [11],Negative
same,"Gene mutation, Bacterial Reverse Mutation Assay (e.g. Ames Test)",[1]; [12],Negative
same,"Gene mutation, Bacterial Reverse Mutation Assay (e.g. Ames Test)",[1]; [13],Negative
same,"Gene mutation, Bacterial Reverse Mutation Assay (e.g. Ames Test)",[1]; [14],Negative
Cc1cc(C)c(C(=O)P(=O)(c2ccccc2)c2ccccc2)c(C)c1 [75980-60-8],"Chromosome aberration, in Vitro Mammalian Chromosome Aberration Test","[1]; in Vitro, Chinese hamster, Chinese Hamster Cells, Database Genotoxicity OASIS, ref Scientific Committee on Consumer Safety ( SCCS), 27 March 2014, SCCS/1528/14",Negative
CC(=O)c1ccccc1 [Acetophenone],Risk based on in vitro genotoxicity data from database (from QSAR-toolbox),[1],Positive in vitro data
Nc1ccccc1 [Aniline],Risk based on in vitro genotoxicity data from database (from QSAR-toolbox),[1],Positive in vitro data
OCc1ccccc1 [Benzylalcohol],Risk based on in vitro genotoxicity data from database (from QSAR-toolbox),[1],Positive in vitro data
CC(C)(c1ccc(O)cc1)c1ccc(O)cc1 [Bisphenol A],Risk based on in vitro genotoxicity data from database (from QSAR-toolbox),[1],Positive in vitro data
Cc1cc(C(C)(C)C)c(O)c(C(C)(C)C)c1 [Butylated hydroxytoluene],Risk based on in vitro genotoxicity data from database (from QSAR-toolbox),[1],Positive in vitro data
O=C1CCCCCN1 [Caprolactam],Risk based on in vitro genotoxicity data from database (from QSAR-toolbox),[1],Positive in vitro data
Oc1ccccc1 [Phenol],Measured and predicted data (remark on genetic toxicity),"[1]; heading line of the measured and predicted data section, ref QSAR Toolbox database",suspected of causing genetic defects
same,Risk based on in vitro genotoxicity data from database (from QSAR-toolbox),[1],Positive in vitro data
